In experiment [1] the target is T1, hCAII (Homo sapiens, UniProt P00918+Q96SW2).
T1 construct: HEK293 cells, a line known to abundantly express hCAII; endogenous in cells; host or cells: HEK293
In words: nine-point dose response hCAII degradation assay in HEK293 cells, western blot. The class given is cell-based. The settings on record: 24 h; for Dmax: HEK293, HEK293 cells, read-out: DMax (maximum percentage of degradation); for hook effect (attenuation of target degradation at high concentration): doses up to 15 μM. How it is done:
Three biological replicates of HEK293 cells were dosed in parallel with 4 or 5 at concentrations ranging from 5 pM to 15 μM for 24 h prior to lysis. […] This phenomenon can be attributed to the binary complexes of degrader-POI and degrader-E3 ligase outcompeting the POI-degrader-E3 ligase ternary complex at high degrader concentrations. […] The half-maximal degradation (DC50 value reported as a 95% confidence interval) and maximum percentage of degradation (DMax) of each active degrader were determined using a least squares sigmoidal fitting of the degradation activity of dosing concentrations below the observable “hook effect” (Figure 2B).
Figure 3 Dose-dependent degradation of hCAII by 4 and 5. (A) Western blot images of HEK293 cells dosed for 24 h with degrader 4 (left) or 5 (right) at concentrations of 5 pM to 15 μM. (B) Dose response curves of hCAII abundance as a percent of DMSO vehicle for 4 (left) or 5 (right). Band intensities of blots from three biological replicates were quantified using ImageJ software (Experimental Section). Data were normalized to a vehicle-treated (DMSO) group and plotted as a sigmoidal curve. Nonlinear fitting of log([inhibitor]) vs response (three parameters) was generated for 4 with R^2 = 0.955 and 5 with R^2 = 0.855 in GraphPad Prism. Points marked with an asterisk indicate only two biological replicates. In all other cases, error bars represent the standard deviation of triplicate experiments. Full images of the western blots are provided in the Supporting Information (Figures S1 and S3).
Given the inactivity of 1–3 and increased potency of 4 over 5, a 12-atom linker appeared to be a preferred length for favorable ternary complex formation in the heterobifunctional degraders tested. To further examine the role of linker length and composition, we explored hydrocarbon linkers for their ability to improve degrader lipophilicity and membrane permeability without impacting the favorable ternary complex formation. […] Western blot analysis and quantification of three biological replicates identified the degradation of hCAII at concentrations of 11 as low as 50 pM and achieved near-complete hCAII degradation at concentrations of 5 nM (Figures 5A and S3).
After reaching 90% confluency, HEK293 cells were trypsinized, counted, and plated with 2 mL media at 2 × 10^6 cells per well on a tissue-culture-treated, 6-well plate. At the appropriate number of hours before reaching ∼90% confluency, cells were treated with DMSO solutions of the appropriate compounds (final concentration 0.5% DMSO per well). Upon reaching 90% confluency, typically 72 h, culture media were removed and the cells were washed with cold Dulbecco’s phosphate-buffered saline (DPBS). Lysis buffer, composed of cell lysis buffer (Cell Signaling Technology, 9803), protease inhibitor cocktail (Cell Signaling Technology, 5872), and 1 mM phenylmethylsulfonylfluoride, was added to each well, and the plates were rocked at 4 °C for 20 min. Cells were then scraped from the bottom of the plates, and the supernatant was collected after spinning down at 14,000g at 4 °C for 10 min and frozen at −80 °C. Lysates were thawed on ice, and the total protein concentration was measured using a Pierce bicinchoninic acid protein assay (Thermo Fisher Scientific, 23225). […] Following heating at 98 °C for 5 min and cooling to room temperature, the prepared samples were electrophoretically separated on a 4–20% TGX gel (Bio-Rad, 4568095) and transferred to a PVDF membrane (Amersham Hybond P 0.45 μm, 106000019) in a tris-glycine transfer buffer (Thermo Fisher Scientific, LC3675) with a 20% final MeOH concentration. The membrane was rocked at 4 °C with fluorescent blocking buffer (Thermo Fisher Scientific, 37565) for 1 h and then incubated with primary antibodies (hCAII Rabbit mAb, 1:1000 and β-actin Rabbit pAb, 1:2000 in fluorescent blocking buffer) at 4 °C overnight. […]
(In general: Immunoblotting shows a protein as a band on a membrane.)

In experiment [2] the target is T2, hCAII (Homo sapiens, UniProt P00918).
T2 construct: made in house; host or cells: Escherichia coli BL21(DE3), pACA plasmid (gift from Carol A. Fierke)
In words: colorimetric p-nitrophenyl acetate hCAII activity assay. It is filed as biochemical. How it is done: To verify that the p-sulfamoyl benzamide MBP retained its binding following ligation with the linker and bulky recruiting group moieties, the inhibition activity of each degrader candidate was determined using a colorimetric p-nitrophenol acetate hCAII activity assay.[46] In short, recombinantly expressed hCAII was preincubated with the degrader candidate before the addition of p-nitrophenyl acetate, a substrate that upon enzymatic cleavage leads to acetic acid and p-nitrophenolate.
Recombinant hCAII was expressed and purified according to the protocol reported in the Supporting Information. […] Wells were prepared to a final volume of 100 μL per well, including buffer (50 mM HEPES, pH 8.0), enzyme (hCAII, 40 nM), inhibitor (varying concentrations), and substrate (p-nitrophenyl acetate, 500 μM). Inhibitors and protein were preincubated for 10 min at rt, and the substrate was added to the reaction mixture immediately before reading. […] The rate of absorbance for each replicate was corrected for substrate autohydrolysis and inherent inhibitor absorbance by subtracting the rate of absorbance from a blank sample lacking enzyme but containing the inhibitor and substrate. Samples lacking inhibitor but containing enzyme and substrate were used to define 100% hCAII activity. Samples lacking inhibitor and enzyme were used to define 0% hCAII activity. IC50 was determined using non-linear regression with a variable slope on the GraphPad Prism software.

The mark [3] stands for this setting: enzyme concentration of 40 nM, read-out: IC50, below the detection limit of the assay.
Setting [4] is: recombinant hCAII 40 nM, p-nitrophenyl acetate 500 μM, pH 8.0, 95% confidence interval, read-out: IC50 (nM), hCAII inhibition activity (Table S1).

Like-named read-outs stand apart in the source and are kept apart here. Bounds are passed on as bounds.

Consider `NS(=O)(=O)c1ccc(C(=O)NCCCOCCCCOCCCNc2cccc3c2C(=O)N(C2CCC(=O)NC2=O)C3=O)cc1` (stereo not drawn) [Compound 4, N-(3-(4-(3-((2-(2,6-Dioxopiperidin-3-yl)-1,3-dioxoisoindolin-4-yl)amino)propoxy)butoxy)propyl)-4-sulfamoylbenzamide], for which the Dmax (usually the greatest extent of degradation seen) at hCAII [1] turned out to be 96%. On hCAII [1] (HEK293 cells), the “concentration of maximum degradation” value turned out to be 500 nM and the “hook effect (attenuation of target degradation at high concentration)” value was “hook effect”. Also, at hCAII [1] (HEK293 cells, 5 pM to 15 μM, 95% confidence interval, read-out: DC50 (half-maximal degradation)), the DC50 – broadly, the midpoint of the concentration-degradation curve – was found to be 5 ± 3 nM. The IC50 (as a rule, the concentration needed to halve the response being measured) at hCAII [2] (setting [3]) is no more than 20 nM. In addition, the concentration for half-maximal inhibition (IC50) at hCAII [2] (setting [4]) is no more than 20 nM.
As for `NS(=O)(=O)c1ccc(C(=O)NCCCOCCOCCOCCCNc2cccc3c2C(=O)N(C2CCC(=O)NC2=O)C3=O)cc1` (stereo not drawn) [Compound 5, N-(3-(2-(2-(3-((2-(2,6-Dioxopiperidin-3-yl)-1,3-dioxoisoindolin-4-yl)amino)propoxy)ethoxy)ethoxy)propyl)-4-sulfamoylbenzamide], the maximal degradation (Dmax) on hCAII [1] amounted to 86%. Besides, at hCAII [1] (HEK293 cells), the “DMax (maximum percentage of degradation)” value worked out at 96%, the “concentration of maximum degradation” value was found to be 5000 nM and the “hook effect (attenuation of target degradation at high concentration)” value is given as “hook effect”. Also, at hCAII [2] (setting [3]), the 50% inhibitory concentration (IC50) was no more than 20 nM. In addition, the IC50 on hCAII [2] (setting [4]) was no more than 20 nM.
